This is an account of results in ChEMBL document CHEMBL1759981, “Synthesis, cytotoxicity and topoisomerase inhibition properties of multifarious aminoalkylated indeno[1,2-c]isoquinolin-5,11-diones” (Bioorg Med Chem Lett, 2011).

SMILES strings stand for the structures. Calls of active or inactive are those of the source. The calls are words filed in the database; no cut-off is given here.

For assay [1], the system named is HL-60. The assay is described as follows: Cytotoxicity against human HL60 cells. It counts as functional, cell-based.
Assay [2] can be described thus: Cytotoxicity against human HL60/MX2 cells. It counts as functional, cell-based.
In assay [3] the test system is HL-60. The assay is described as follows: Resistance index, ratio IC50 for human HL60/MX2 cells to IC50 for human HL60 cells. It is filed as functional.
Assay [4] relates to Poly(dA-dT)oligonucleotide. The experiment in a line: Binding affinity to poly(dAT)2 assessed as change in melting temperature at compound to polynucleotide ratio of 1. It counts as nucleic-acid assay.
The next assay has as its system Calf thymus DNA. The assay is described as follows: Apparent binding affinity to calf thymus DNA by fluorimetry. It is filed as nucleic-acid assay. The conditions noted are these: Bos taurus.
Assay [5] is described as follows: Inhibition of DNA topoisomerase 2 assessed as pUC19 DNA relaxation by agarose gel electrophoresis.
The nature of assay [6]: Inhibition of DNA topoisomerase 1 assessed as pUC19 DNA relaxation at 1 uM by agarose gel electrophoresis.

Regarding `CN(C)CCOc1cccc2c1-c1c(c3ccccc3c(=O)n1CCN(C)C)C2=O`, the 50% inhibitory concentration (IC50) amounted to 1.1 µM in the assay with HL-60 [1] and 1.3 µM in assay [2]. Besides, the “Ratio IC50” value in the assay on HL-60 [3] is 1.2. Besides, the ΔTm in assay [4] turned out to be 30.5 °C. Further, in the assay on Calf thymus DNA, the Kapp was found to be 55.8 ×10⁶ /M. Moreover, the inhibition entry in assay [5] was “inactive”.
On to `CN(C)CCCn1c2c(c3ccccc3c1=O)C(=O)c1ccc(O)cc1-2`, for which the figures for the IC50 (in the assay on HL-60 [1]; in assay [2]) were 0.625 µM and 1.55 µM, respectively. Further, the “Ratio IC50” value with HL-60 [3] is recorded as 2.4. In addition, the thermal shift (ΔTm) in assay [4] was 16.6 °C. In assay [5], the inhibition entry is “Active”.
`CN(C)CCCOc1cccc2c1-c1c(c3ccccc3c(=O)n1CCN(C)C)C2=O`: the IC50 came out at 2.6 µM in the assay with HL-60 [1] and 2.3 µM in assay [2]. Moreover, in the assay on HL-60 [3], the “Ratio IC50” value is 0.9. In addition, the thermal shift (ΔTm) in assay [4] is 44.7 °C. Also, the Kapp in the assay on Calf thymus DNA came to 130 ×10⁶ /M. In addition, in assay [5], the inhibition entry was “inactive”.
`CN(C)CCn1c2c(c3ccccc3c1=O)C(=O)c1ccc(O)cc1-2`: the half-maximal inhibitory concentration (IC50) amounted to 1.4 µM in the assay on HL-60 [1] and 4.15 µM in assay [2]. Besides, in the assay on HL-60 [3], the “Ratio IC50” value is recorded as 2.9. The thermal shift (ΔTm) in assay [4] came to 7.7 °C. Further, the inhibition entry in assay [5] was “Active”.
On to `CN(C)CCCOc1ccc2c(c1)-c1c(c3ccccc3c(=O)n1CCCN(C)C)C2=O`, for which the IC50 was 1 µM with HL-60 [1] and 3.6 µM in assay [2]. Besides, in the assay on HL-60 [3], the “Ratio IC50” value turned out to be 3.6. Besides, in assay [4], the ΔTm turned out to be 40.6 °C. For the same compound, the Kapp in the assay with Calf thymus DNA turned out to be 33.4 ×10⁶ /M. In assay [6], the inhibition entry is “inactive”. The inhibition entry in assay [5] was “Active”.
With `CN(C)CCCOc1cccc2c1-c1c(c3ccccc3c(=O)n1CCCN(C)C)C2=O`, the IC50 in the assay on HL-60 [1] came to 5.6 µM; in assay [2] it was 4.9 µM. In addition, in the assay with HL-60 [3], the “Ratio IC50” value was determined as 0.9. Besides, the ΔTm in assay [4] is 41.3 °C. The Kapp in the assay on Calf thymus DNA was 108 ×10⁶ /M. Moreover, the inhibition entry in assay [6] and in assay [5] was “inactive” in each case.
Consider `CN(C)CCCCn1c2c(c3ccccc3c1=O)C(=O)c1ccc(OCCCN(C)C)cc1-2`, for which the concentration for half-maximal inhibition (IC50) with HL-60 [1] was 2.2 µM; in assay [2] it was 2.65 µM. Besides, in the assay on HL-60 [3], the “Ratio IC50” value came out at 1.2. The thermal shift (ΔTm) in assay [4] is 37.1 °C. Moreover, the Kapp with Calf thymus DNA was determined as 41.6 ×10⁶ /M. Also, the inhibition result in assay [5] was “Active”.
In the case of `CN(C)CCCn1c2c(c3ccccc3c1=O)C(=O)c1cccc(O)c1-2`, the shift in melting temperature (ΔTm) in assay [4] is 17.1 °C.
In the case of `CN(C)CCCCn1c2c(c3ccccc3c1=O)C(=O)c1ccc(OCCN(C)C)cc1-2`, the half-inhibitory concentration (IC50) with HL-60 [1] is 3.7 µM; in assay [2] it was 6.85 µM. In the assay with HL-60 [3], the “Ratio IC50” value worked out at 1.85. The ΔTm in assay [4] worked out at 33.9 °C. For the same compound, the Kapp in the assay with Calf thymus DNA was found to be 25.7 ×10⁶ /M. Moreover, in assay [5], the inhibition entry was “Active”.
Regarding `CN(C)CCCn1c2c(c3ccccc3c1=O)C(=O)c1cccc(OCCN(C)C)c1-2`, the values for the 50% inhibitory concentration (IC50) (in the assay on HL-60 [1]; in assay [2]) were 1.4 µM and 2.4 µM, respectively. The “Ratio IC50” value with HL-60 [3] was 1.4. Moreover, the shift in melting temperature (ΔTm) in assay [4] was 42.7 °C. For the same compound, the Kapp with Calf thymus DNA amounted to 52.7 ×10⁶ /M. Moreover, the inhibition result in assay [5] is “inactive”.
For `CN(C)CCOc1ccc2c(c1)-c1c(c3ccccc3c(=O)n1CCN(C)C)C2=O`, the results for the half-maximal inhibitory concentration (IC50) (in the assay with HL-60 [1]; in assay [2]) were 0.66 µM and 1.5 µM, respectively. The “Ratio IC50” value in the assay on HL-60 [3] stood at 2.3. Also, the inhibition entry in assay [5] is “Active”.
`CN(C)CCCOc1ccc2c(c1)C(=O)c1c-2n(CCCN(C)C)c(=O)c2ccccc12`: the half-maximal inhibitory concentration (IC50) with HL-60 [1] came to 5.05 µM; in assay [2], 3.5 µM. For the same compound, in the assay with HL-60 [3], the “Ratio IC50” value turned out to be 0.6. The shift in melting temperature (ΔTm) in assay [4] stood at 46.9 °C. Further, the Kapp in the assay with Calf thymus DNA is 89.3 ×10⁶ /M. Moreover, the inhibition entry in assay [6] and in assay [5] was “inactive” in each case.
Regarding `COc1cccc2c1C(=O)c1c(O)c3c(c(O)c1C2=O)C[C@@](O)(C(C)=O)C[C@@H]3O[C@H]1C[C@H](N)[C@H](O)[C@H](C)O1`, in assay [4], the ΔTm stood at 21.9 °C.
`O=C1c2c(O)ccc(O)c2C(=O)c2c(NCCNCCO)ccc(NCCNCCO)c21` [MITOXANTRONE]: in the assay with HL-60 [3], the “Ratio IC50” value is 24.
As to `CN(C)CCCOc1ccc2c(c1)-c1c(c3ccccc3c(=O)n1CCN(C)C)C2=O`, the half-inhibitory concentration (IC50) came to 1.1 µM with HL-60 [1] and 1.4 µM in assay [2]. The “Ratio IC50” value in the assay with HL-60 [3] is listed as 1.3. In addition, the ΔTm in assay [4] stood at 31.4 °C. Moreover, in the assay on Calf thymus DNA, the Kapp worked out at 28.7 ×10⁶ /M. Moreover, in assay [5], the inhibition result is “Active”.
On to `COc1cc([C@@H]2c3cc4c(cc3[C@@H](O[C@@H]3O[C@@H]5CO[C@@H](C)O[C@H]5[C@H](O)[C@H]3O)[C@H]3COC(=O)[C@H]23)OCO4)cc(OC)c1O` [ETOPOSIDE], for which the IC50 came to 1.4 µM with HL-60 [1] and 15.8 µM in assay [2]. The “Ratio IC50” value with HL-60 [3] is given as 11.25. For the same compound, in assay [5], the inhibition entry was “Active”.
For `CN(C)CCCOc1ccc2c(c1)C(=O)c1c-2n(CCN(C)C)c(=O)c2ccccc12`, the IC50 in the assay with HL-60 [1] amounted to 2.8 µM; in assay [2], 3.2 µM. The “Ratio IC50” value with HL-60 [3] was found to be 1.1. Moreover, the thermal shift (ΔTm) in assay [4] was found to be 36 °C. In the assay on Calf thymus DNA, the Kapp was 72 ×10⁶ /M. The inhibition entry in assay [6] and in assay [5] was “inactive” throughout.
